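Test compounds were applied to cells in 96-well plates for 48 hours at 5 doses. At the GI50, growth is halved.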 Activity calls are given as the source filed them. Cut-off read from the data, not from the text of the source: active = GI50 up to about 1.1 µM and inactive = higher.
Columns and labels:
Assay in all cases: inhibition of tumour cell growth, NCI panel, 48 h
[1] = test system: COLO 205
[2] = test system: K562
[3] = test system: RPMI-8226
[4] = test system: SF-268
[5] = test system: T47D
[6] = test system: OVCAR-4
[7] = test system: MDA-MB-231
[8] = test system: SW-620
[9] = test system: TK-10
[10] = test system: MOLT-4
[11] = test system: NCI/ADR-RES
[12] = test system: OVCAR-5
[13] = test system: PC-3
[14] = test system: BT-549
[15] = test system: IGROV-1
[16] = test system: HCT-15
[17] = test system: HOP-62
[18] = test system: HCC 2998
[19] = test system: SK-MEL-2
[20] = test system: SK-MEL-5

Row | SMILES | GI50 [1] | GI50 [2] | GI50 [3] | GI50 [4] | GI50 [5] | GI50 [6] | GI50 [7] | GI50 [8] | GI50 [9] | GI50 [10] | GI50 [11] | GI50 [12] | GI50 [13] | GI50 [14] | GI50 [15] | GI50 [16] | GI50 [17] | GI50 [18] | GI50 [19] | GI50 [20]
1 | CN(C)CCn1c(=O)nc2c3c(c([N+](=O)[O-])ccc31)Nc1ccc(O)cc1-2 | 2.72 µM (inactive) | 2.41 µM (inactive) | 4.16 µM (inactive) | 1.95 µM (inactive) | 2.37 µM (inactive) | 9.68 µM (inactive) | 2.07 µM (inactive) | 1.73 µM (inactive) | 4.66 µM (inactive) | 0.0638 µM (active) | 34.2 µM (inactive) | 15.1 µM (inactive) | 4.25 µM (inactive) | 14.5 µM (inactive) | 1.16 µM (inactive) | 16.7 µM | 2.47 µM (inactive) | 2.48 µM (inactive) | 15.7 µM (inactive) | 4.45 µM (inactive)
2 | COC1=C(C)C(=O)C2=C(C1=O)C1C3CC4=C(C(=O)C(OC)=C(C)C4=O)C(CNC(=O)C(C)O)N3C(C#N)C(C2)N1C (stereo not given) | < 0.01 µM (active) | < 0.01 µM (active) | < 0.01 µM (active) | < 0.01 µM (active) | < 0.01 µM (active) | 0.026 µM (active) | < 0.01 µM (active) | < 0.01 µM (active) | 0.0353 µM (active) | < 0.01 µM (active) | 1.46 µM (inactive) | 0.0269 µM (active) | < 0.011 µM (active) | < 0.01 µM (active) | < 0.01 µM (active) | 0.0169 µM | 0.0149 µM (active) | < 0.0113 µM (active) | < 0.01 µM (active) | < 0.01 µM (active)
3 | CNC(=S)N/N=C/c1cccc(C)n1 | 38.2 µM (inactive) | 42.8 µM (inactive) | > 59.8 µM (inactive) | 25.9 µM (inactive) | 42.8 µM (inactive) | > 59.7 µM (inactive) | 39.3 µM (inactive) | 49.1 µM (inactive) | 32.8 µM (inactive) | 39.8 µM (inactive) | 23.8 µM (inactive) | 37.8 µM (inactive) | 42 µM (inactive) | 23.5 µM (inactive) | 44.7 µM (inactive) | 26 µM | 20.7 µM (inactive) | > 54 µM (inactive) | 49.1 µM (inactive) | 25.1 µM (inactive)
4 | CCCc1c(Cl)nc(Cl)nc1Cl | 0.252 µM (active) | 0.0723 µM (active) | 0.432 µM (active) | 1.29 µM (inactive) | 3.08 µM (inactive) | 10.2 µM (inactive) | 0.425 µM (active) | 0.16 µM (active) | 3.44 µM (inactive) | 0.0429 µM (active) | 0.845 µM (active) | 1.54 µM (inactive) | 2.75 µM (inactive) | 0.377 µM (active) | 0.787 µM (active) | 0.327 µM | 2.43 µM (inactive) | 5.55 µM (inactive) | 0.352 µM (active) | 0.0594 µM (active)
5 | Cc1nc(-n2nc(-c3ccccc3)cc2-c2ccccc2)sc1C(/C=C\c1ccc([N+](=O)[O-])cc1)=N/NC(=S)NN | > 31.6 µM (inactive) | > 56.6 µM (inactive) | > 48.8 µM (inactive) | 26.4 µM (inactive) | 24.9 µM (inactive) | 26.2 µM (inactive) | > 10 µM (inactive) | > 74 µM (inactive) | 37.2 µM (inactive) | > 52.5 µM (inactive) | 26.9 µM (inactive) | 38.7 µM (inactive) | 28.2 µM (inactive) | 21.3 µM (inactive) | 40.7 µM (inactive) | 22.8 µM | 22 µM (inactive) | 13.8 µM (inactive) | 44.1 µM (inactive) | 27.7 µM (inactive)
6 | O=C1c2ccccc2CC12Cc1ccccc1C2 | 44.7 µM (inactive) | 34.8 µM (inactive) | 31.7 µM (inactive) | 48 µM (inactive) | 36.2 µM (inactive) | 16.7 µM (inactive) | 66.7 µM (inactive) | > 100 µM (inactive) | 21.9 µM (inactive) | 35.7 µM (inactive) | 25.2 µM (inactive) | > 100 µM (inactive) | 42 µM (inactive) | 83.2 µM (inactive) | 87.5 µM (inactive) | 49.7 µM | 83.9 µM (inactive) | 18.5 µM (inactive) | 45.3 µM (inactive) | 16.7 µM (inactive)
7 | N#CC(NCCc1ccccc1)c1ccccc1 (stereo not given) | > 100 µM (inactive) | > 10 µM (inactive) | > 100 µM (inactive) | > 100 µM (inactive) | > 100 µM (inactive) | > 100 µM (inactive) | > 100 µM (inactive) | > 100 µM (inactive) | > 100 µM (inactive) | > 100 µM (inactive) | > 100 µM (inactive) | > 100 µM (inactive) | > 100 µM (inactive) | > 100 µM (inactive) | > 100 µM (inactive) | > 100 µM | > 100 µM (inactive) | > 100 µM (inactive) | > 100 µM (inactive) | > 100 µM (inactive)
8 | COc1cc(/C=C/C(=O)c2c([O-])on[n+]2-c2ccccc2)ccc1O | 12.1 µM (inactive) | 2.7 µM (inactive) | 1.77 µM (inactive) | 3.89 µM (inactive) | 2.77 µM (inactive) | 1.9 µM (inactive) | 2.98 µM (inactive) | 2.18 µM (inactive) | 3.29 µM (inactive) | 2.2 µM (inactive) | 2.48 µM (inactive) | 11 µM (inactive) | 6.58 µM (inactive) | 2.99 µM (inactive) | 2.86 µM (inactive) | 2.13 µM | 4.4 µM (inactive) | 2.27 µM (inactive) | 2.31 µM (inactive) | 3.78 µM (inactive)
9 | NCCc1c[nH]c2ccc(OC(=O)C(=O)O)cc12 | > 100 µM (inactive) | > 100 µM (inactive) | > 100 µM (inactive) | > 100 µM (inactive) | > 100 µM (inactive) | > 100 µM (inactive) | > 100 µM (inactive) | > 100 µM (inactive) | > 100 µM (inactive) | > 100 µM (inactive) | > 100 µM (inactive) | > 100 µM (inactive) | > 100 µM (inactive) | > 100 µM (inactive) | > 100 µM (inactive) | > 100 µM | > 100 µM (inactive) | > 100 µM (inactive) | > 100 µM (inactive) | > 100 µM (inactive)
10 | CC1C(c2ccc3c(c2)OCO3)c2cc3c(cc2OC1N1CCOCC1)OCO3 (stereo not given) | 21.1 µM (inactive) | 7.41 µM (inactive) | 21 µM (inactive) | 31.3 µM (inactive) | 13.6 µM (inactive) | 28.8 µM (inactive) | 18.4 µM (inactive) | 25.9 µM (inactive) | 29.1 µM (inactive) | 16.7 µM (inactive) | 15.8 µM (inactive) | 46.2 µM (inactive) | 25.9 µM (inactive) | 20 µM (inactive) | 28 µM (inactive) | 19.3 µM | 34.4 µM (inactive) | 18.2 µM (inactive) | 19.9 µM (inactive) | 17 µM (inactive)
